The values that follow come from ChEMBL document CHEMBL1150298, “Sulfadiazine/hydroxypropyl-beta-cyclodextrin host-guest system: Characterization, phase-solubility and molecular modeling” (Bioorg Med Chem, 2008).

Values after ≈ are worked out from the molar mass of the structure shown.

The data set is described as follows: Aqueous solubility of compound at pH 7 by spectrophotometry. Conditions: aqueous solution.

The term solubility denotes the dissolved amount per volume that the medium holds. The compound `Nc1ccc(S(=O)(=O)Nc2ncccn2)cc1` [SULFADIAZINE] showed a solubility of 40 µg/mL (≈ 160 µM).
